In ChEMBL document CHEMBL1649233, “In vitro bactericidal activity of iclaprim in human plasma” (Antimicrob Agents Chemother, 2009):
Converted amounts (≈) assume the structure as drawn.

What was measured:
[1] = Plasma protein binding in human; type: ADME, cell-free; conditions: read-out: PPB (converted)
Staphylococcus aureus [2] = test: Bactericidal activity against methicillin-resistant Staphylococcus aureus 50478 on CAMHB media at 4 times MIC by time kill analysis in presence of 50% human plasma; type: functional
Staphylococcus aureus [3] = test: Bactericidal activity against methicillin-susceptible Staphylococcus aureus ATCC 25923 on CAMHB media at 4 times MIC by time kill analysis; type: functional
Staphylococcus aureus [4] = test: Ratio of MBC to MIC for methicillin-susceptible Staphylococcus aureus; type: functional
Staphylococcus aureus [5] = test: Antimicrobial activity against methicillin-resistant Staphylococcus aureus by broth microdilution method in presence of 50% human plasma; type: functional
Staphylococcus aureus [6] = test: Bactericidal activity against methicillin-resistant Staphylococcus aureus after 24 hrs by M26-A method; type: functional
Staphylococcus aureus [7] = test: Bactericidal activity against methicillin-resistant Staphylococcus aureus after 24 hrs by M26-A method in presence of 50% human plasma; type: functional
Staphylococcus aureus [8] = test: Ratio of MBC to MIC for methicillin-susceptible Staphylococcus aureus in presence of 50% human plasma; type: functional
Staphylococcus aureus [9] = test: Bactericidal activity against methicillin-resistant Staphylococcus aureus 20 on CAMHB media at 4 times MIC by time kill analysis; type: functional
Staphylococcus aureus [10] = test: Antimicrobial activity against methicillin-resistant Staphylococcus aureus by broth microdilution method; type: functional
Staphylococcus aureus [11] = test: Antimicrobial activity against methicillin-susceptible Staphylococcus aureus by broth microdilution method; type: functional
Staphylococcus aureus [12] = test: Bactericidal activity against methicillin-resistant Staphylococcus aureus 3817 on CAMHB media at 4 times MIC by time kill analysis; type: functional
Staphylococcus aureus [13] = test: Bactericidal activity against methicillin-susceptible Staphylococcus aureus after 24 hrs by M26-A method; type: functional
Staphylococcus aureus [14] = test: Antimicrobial activity against methicillin-susceptible Staphylococcus aureus by broth microdilution method in presence of 50% human plasma; type: functional
Staphylococcus aureus [15] = test: Bactericidal activity against methicillin-susceptible Staphylococcus aureus after 24 hrs by M26-A method in presence of 50% human plasma; type: functional
Staphylococcus aureus [16] = test: Bactericidal activity against methicillin-resistant Staphylococcus aureus 50478 on CAMHB media at 4 times MIC by time kill analysis; type: functional
Staphylococcus aureus [17] = test: Bactericidal activity against methicillin-resistant Staphylococcus aureus 6 on CAMHB media at 4 times MIC by time kill analysis in presence of 50% human plasma; type: functional
Staphylococcus aureus [18] = test: Bactericidal activity against methicillin-susceptible Staphylococcus aureus ATCC 25923 on CAMHB media at 4 times MIC by time kill analysis in presence of 50% human plasma; type: functional
Staphylococcus aureus [19] = test: Bactericidal activity against methicillin-resistant Staphylococcus aureus 20 on CAMHB media at 4 times MIC by time kill analysis in presence of 50% human plasma; type: functional
Staphylococcus aureus [20] = test: Ratio of MIC for glycopeptide-nonsusceptible Staphylococcus aureus NJ992 in presence of 50% heat inactivated serum to MIC for glycopeptide-nonsusceptible Staphylococcus aureus NJ992; type: functional
Staphylococcus aureus [21] = test: Bactericidal activity against methicillin-resistant Staphylococcus aureus 3817 on CAMHB media at 4 times MIC by time kill analysis in presence of 50% human plasma; type: functional
Staphylococcus aureus [22] = test: Bactericidal activity against methicillin-resistant Staphylococcus aureus 6 on CAMHB media at 4 times MIC by time kill analysis; type: functional

## COc1cc(Cc2cnc(N)nc2N)c2c(c1OC)OC(C1CC1)C=C2 (configuration not stated)
[1]
  fraction unbound: 0.07
Staphylococcus aureus [2]
  Time: 6 h
Staphylococcus aureus [3]
  Time: 6.2 h
Staphylococcus aureus [4]
  Ratio: 1
Staphylococcus aureus [5]
  MIC: 0.11 mg/L
Staphylococcus aureus [6]
  MBC: 0.1 mg/L (≈ 0.282 µM)
Staphylococcus aureus [7]
  MBC: 0.11 mg/L
Staphylococcus aureus [8]
  Ratio: 1
Staphylococcus aureus [9]
  Time: 5.5 h
Staphylococcus aureus [10]
  MIC: 0.09 mg/L (≈ 0.254 µM)
Staphylococcus aureus [11]
  MIC: 0.09 mg/L (≈ 0.254 µM)
Staphylococcus aureus [12]
  Time: 6.1 h
Staphylococcus aureus [13]
  MBC: 0.1 mg/L (≈ 0.282 µM)
Staphylococcus aureus [14]
  MIC: 0.11 mg/L
Staphylococcus aureus [15]
  MBC: 0.11 mg/L
Staphylococcus aureus [16]
  Time: 6.8 h
Staphylococcus aureus [17]
  Time: 7.6 h
Staphylococcus aureus [18]
  Time: 7.2 h
Staphylococcus aureus [19]
  Time: 5 h
Staphylococcus aureus [20]
  Ratio: 1

## CC(=O)NC[C@H]1CN(c2ccc(N3CCOCC3)c(F)c2)C(=O)O1 [LINEZOLID]
Staphylococcus aureus [5]
  MIC: 2.55 mg/L
Staphylococcus aureus [6]
  MBC: > 32 mg/L
Staphylococcus aureus [7]
  MBC: > 32 mg/L
Staphylococcus aureus [10]
  MIC: 3.73 mg/L (≈ 11.1 µM)
Staphylococcus aureus [11]
  MIC: 3.73 mg/L (≈ 11.1 µM)
Staphylococcus aureus [13]
  MBC: > 32 mg/L
Staphylococcus aureus [14]
  MIC: 2.55 mg/L
Staphylococcus aureus [15]
  MBC: > 32 mg/L

## CC(=O)O[C@H]1C[C@@]2(C)[C@@H](C[C@@H](O)[C@H]3[C@@]4(C)CC[C@@H](O)[C@@H](C)[C@@H]4CC[C@@]32C)/C1=C(\CCC=C(C)C)C(=O)O [FUSIDIC ACID]
[1]
  fraction unbound: 0.03
Staphylococcus aureus [4]
  Ratio: 2
Staphylococcus aureus [5]
  MIC: 6.73 mg/L
Staphylococcus aureus [8]
  Ratio: 4
Staphylococcus aureus [10]
  MIC: 0.14 mg/L (≈ 0.271 µM)
Staphylococcus aureus [11]
  MIC: 0.14 mg/L (≈ 0.271 µM)
Staphylococcus aureus [14]
  MIC: 6.73 mg/L

## CC(=O)N[C@@H]1[C@H](Oc2c3cc4cc2Oc2ccc(cc2Cl)[C@@H](O[C@@H]2O[C@@H](CO)[C@@H](O)[C@H](O)[C@@H]2NC(C)=O)[C@@H]2NC(=O)[C@H](NC(=O)[C@@H]4NC(=O)[C@H]4NC(=O)[C@@H](Cc5ccc(c(Cl)c5)O3)NC(=O)[C@H](N)c3ccc(O)c(c3)Oc3cc(O)cc4c3)c3ccc(O)c(c3)-c3c(O[C@H]4O[C@H](CO)[C@@H](O)[C@@H](O)[C@@H]4O)cc(O)cc3[C@@H](C(=O)O)NC2=O)O[C@@H](CO)[C@@H](O)[C@@H]1O
Staphylococcus aureus [4]
  Ratio: 1
Staphylococcus aureus [5]
  MIC: 1.23 mg/L
Staphylococcus aureus [6]
  MBC: 1.41 mg/L (≈ 0.798 µM)
Staphylococcus aureus [7]
  MBC: 1.68 mg/L
Staphylococcus aureus [8]
  Ratio: 1
Staphylococcus aureus [10]
  MIC: 1.07 mg/L (≈ 0.605 µM)
Staphylococcus aureus [11]
  MIC: 1.07 mg/L (≈ 0.605 µM)
Staphylococcus aureus [13]
  MBC: 1.41 mg/L (≈ 0.798 µM)
Staphylococcus aureus [14]
  MIC: 1.23 mg/L
Staphylococcus aureus [15]
  MBC: 1.68 mg/L

## CN[C@H](CC(C)C)C(=O)N[C@H]1C(=O)N[C@@H](CC(N)=O)C(=O)N[C@H]2C(=O)N[C@H]3C(=O)N[C@H](C(=O)N[C@H](C(=O)O)c4cc(O)cc(O)c4-c4cc3ccc4O)[C@H](O)c3ccc(c(Cl)c3)Oc3cc2cc(c3O[C@@H]2O[C@H](CO)[C@@H](O)[C@H](O)[C@H]2O[C@H]2C[C@](C)(N)[C@H](O)[C@H](C)O2)Oc2ccc(cc2Cl)[C@H]1O [VANCOMYCIN]
[1]
  fraction unbound: 0.45
Staphylococcus aureus [2]
  Time: 12 h
Staphylococcus aureus [3]
  Time: 15 h
Staphylococcus aureus [5]
  MIC: 1.46 mg/L
Staphylococcus aureus [6]
  MBC: 1.74 mg/L (≈ 1.2 µM)
Staphylococcus aureus [21]
  Time: 15.6 h
Staphylococcus aureus [7]
  MBC: 1.52 mg/L
Staphylococcus aureus [9]
  Time: 10.6 h
Staphylococcus aureus [10]
  MIC: 1.62 mg/L (≈ 1.12 µM)
Staphylococcus aureus [11]
  MIC: 1.62 mg/L (≈ 1.12 µM)
Staphylococcus aureus [12]
  Time: 17 h
Staphylococcus aureus [13]
  MBC: 1.74 mg/L (≈ 1.2 µM)
Staphylococcus aureus [14]
  MIC: 1.46 mg/L
Staphylococcus aureus [22]
  Time: 13.5 h
Staphylococcus aureus [15]
  MBC: 1.52 mg/L
Staphylococcus aureus [18]
  Time: 12.8 h
Staphylococcus aureus [19]
  Time: 17 h
